Results published in patent US5856344A, “Sulfonylamino-substituted benzoylguanidines, a process for their preparation, their use as a medicament or diagnostic aid, and medicament containing them” (Hoechst Aktiengesellschaft, priority 1995, dated 1999).
pIC50: −log10 of the molar value. Where a name gives a salt, the structure may show the parent alone.

Biological target: T1, Na^+ /H^+ exchanger of rabbit erythrocytes (Oryctolagus cuniculus, UniProt P23791)
T1 construct: endogenous in cells; host or cells: erythrocytes in whole blood of cholesterol-fed White New Zealand rabbits (Ivanovas)
Assay: Inhibition of the Na+/H+ exchanger of rabbit erythrocytes (amiloride-sensitive sodium influx, flame photometry)
Format: cell-based, rabbit (White New Zealand)
Details: hyperosmolar salt/sucrose medium, pH 7.4, 37° C.
Text: Inhibition of the Na^+ /H^+ exchanger of rabbit erythrocytes White New Zealand rabbits (Ivanovas) received a standard diet containing 2% cholesterol for six weeks in order to activate Na^+ /H^+ exchange and thus to make it possible to determine the Na^+ influx into the erythrocytes via Na^+ /H^+ exchange by flame photometry. The blood was taken from the arteries of the ear and anticoagulated with 25 IU of potassium heparin. Part of each sample was used for duplicate determination of the hematocrit by centrifugation. Aliquots each of 100 μl were used to measure the Na^+ content of the erythrocytes.
In order to determine the amiloride-sensitive sodium influx, 100 μl of each blood sample were incubated in each case in 5 ml of a hyperosmolar salt/sucrose medium (mmol/l: 140 NaCl, 3 KCl, 150 sucrose, 0.1 ouabain, 20 trishydroxymethylaminomethane) at pH 7.4 and 37° C. The erythrocytes were then washed three times with ice-cold MgCl2 /ouabain solution (mmol/l: 112 MgCl2, 0.1 ouabain) and hemolyzed in 2.0 ml of distilled water. The intracellular sodium content was determined by flame photometry.
The net Na^+ influx was calculated from the difference between the initial sodium levels and the sodium content of the erythrocytes after incubation. […]

T1 sequence (P23791 whole entry): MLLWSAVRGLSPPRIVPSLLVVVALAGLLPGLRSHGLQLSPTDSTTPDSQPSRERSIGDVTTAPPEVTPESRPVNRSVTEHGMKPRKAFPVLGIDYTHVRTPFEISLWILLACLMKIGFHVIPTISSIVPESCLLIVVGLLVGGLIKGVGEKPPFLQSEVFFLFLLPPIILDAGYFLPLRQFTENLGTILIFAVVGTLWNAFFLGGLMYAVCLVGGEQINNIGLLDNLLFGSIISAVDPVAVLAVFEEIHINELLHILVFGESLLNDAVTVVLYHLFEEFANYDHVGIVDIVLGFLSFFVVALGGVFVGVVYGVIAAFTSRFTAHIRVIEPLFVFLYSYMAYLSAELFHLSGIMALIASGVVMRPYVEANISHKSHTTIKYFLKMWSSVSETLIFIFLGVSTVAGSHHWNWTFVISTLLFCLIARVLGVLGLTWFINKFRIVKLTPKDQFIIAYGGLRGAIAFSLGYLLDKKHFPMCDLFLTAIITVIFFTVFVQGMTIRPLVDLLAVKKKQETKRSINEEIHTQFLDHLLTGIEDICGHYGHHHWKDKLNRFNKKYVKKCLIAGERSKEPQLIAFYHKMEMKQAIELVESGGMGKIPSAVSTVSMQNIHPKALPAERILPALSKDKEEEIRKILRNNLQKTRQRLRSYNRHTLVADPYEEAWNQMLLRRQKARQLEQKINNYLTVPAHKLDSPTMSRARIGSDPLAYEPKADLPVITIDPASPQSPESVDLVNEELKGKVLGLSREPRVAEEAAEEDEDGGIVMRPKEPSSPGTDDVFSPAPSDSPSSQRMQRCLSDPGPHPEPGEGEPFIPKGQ

pIC50 | Compound
6.52 | CC(C)c1ccc(C(=O)N=C(N)N)cc1NS(C)(=O)=O [Example 1, 4-Isopropyl-3-methylsulfonylaminobenzoylguanidine, hydrochloride]
6.13 | CS(=O)(=O)Nc1cc(C(=O)N=C(N)N)ccc1Oc1cccnc1 [Example 2, 3-Methylsulfonylamino-4--(3-pyridyloxy)benzoylguanidine]
